The test system of one experiment is M14. The experiment is described as follows: Cell viability (MTS) anti-proliferative assay, M14. Type of experiment: cell-based. The conditions noted are these: M14 human melanoma, 48 h treatment, n = 4, read-out: IC50 values ± SEM, M14. On the procedure:
(§1) The anti-proliferative effect of UC-112 and its analogs were tested in human melanoma (A375, M14 and M14/LCC6MDR1) and human prostate cancer (PC-3) cell lines. All the cell lines were purchased from ATCC (American Type Culture Collection, Manassas, VA). The cancer cells were cultured using the supplemented cell culture medium as described before at 37°C in a humidified atmosphere containing 5% CO2. 5000 cells in logarithm growing phase were seeded overnight into each well of a 96-well plate. Then the cells were continuously incubated with sequential diluted compound solution (10 nM to 100 μM, 100 μl per well) in cell culture medium.

The test system of the next experiment is A375. Put plainly: Cell viability (MTS) anti-proliferative assay, A375. Format: cell-based. The conditions noted are these: A-375, A375 human melanoma, 48 h treatment, n = 4, read-out: IC50 values ± SEM, A375. On the procedure: as §1
A further experiment relates to M14/LCC6MDR1. The experiment is described as follows: Cell viability (MTS) anti-proliferative assay, multidrug-resistant M14/LCC6MDR1. Format: cell-based, human. As to conditions: for IC50: multidrug-resistant M14/LCC6MDR1 melanoma, 48 h treatment, MTS, n = 4, read-out: IC50 values ± SEM, M14/LCC6MDR1; for Resistance Index: IC50 on M14/LCC6MDR1 divided by IC50 on parental M14. On the procedure: as §1

The test system of the next experiment is PC-3. Put plainly: Cell viability (MTS) anti-proliferative assay, PC-3. The conditions noted are these: PC-3 human prostate cancer, 48 h treatment, n = 4, read-out: IC50 values ± SEM, PC-3. Format: cell-based. The procedure: as §1

Where two headings read alike, the source gives them in different places.

On to `CCOCc1cc(CN2CCCC2)c(O)c2ncccc12` [6e, 5-(ethoxymethyl)-7-(pyrrolidin-1-ylmethyl)quinolin-8-ol], for which the IC50 in the experiment on M14 came out at 5.1 ± 2.1 µM; in the experiment on A375 it was 6.1 ± 0.7 µM.
In the case of `Oc1c(CN2CCCCC2)cc(COCc2ccccc2)c2cccnc12` [8a, 5-((benzyloxy)methyl)-7-(piperidin-1-ylmethyl)quinolin-8-ol], the IC50 in the experiment on M14/LCC6MDR1 (Homo sapiens, 48 h) worked out at 2.1 ± 0.6 µM; in the experiment on M14, 1.3 ± 0.2 µM; with A375, 1.1 ± 0.1 µM; with PC-3, 1.3 ± 0.3 µM. The “Resistance Index” value in the experiment with M14/LCC6MDR1 is 1.6.
Consider `CCCCOCc1cc(CN2CCCC2)c(O)c2ncccc12` [6g, 5-(butoxymethyl)-7-(pyrrolidin-1-ylmethyl)quinolin-8-ol], for which the IC50 in the experiment with M14 worked out at 4.9 ± 1.3 µM; in the experiment with A375 it was 3 ± 0.5 µM.
In the case of `Oc1c(CN2CCOCC2)cc(COCc2ccccc2)c2cccnc12` [8b, 5-((benzyloxy)methyl)-7-(morpholinomethyl)quinolin-8-ol], the IC50 in the experiment on M14/LCC6MDR1 (Homo sapiens, 48 h) amounted to 3.5 ± 1 µM; in the experiment on M14, 4.8 ± 0.5 µM; with A375, 5 ± 1.6 µM. For the same molecule, the “Resistance Index” value with M14/LCC6MDR1 is recorded as 0.7.
Take `CC(=O)Nc1ccc(COCc2cc(CN3CCCC3)c(O)c3ncccc23)cc1` [4k, N-(4-(((8-hydroxy-7-(pyrrolidin-1-ylmethyl)quinolin-5-yl)methoxy)methyl)phenyl)acetamide]: the IC50 in the experiment on M14/LCC6MDR1 (Homo sapiens, 48 h) was determined as 5.5 ± 1.3 µM; with A375 it was 4.7 ± 0.8 µM.
In the case of `COCCn1c2c([n+](Cc3cnccn3)c1C)C(=O)c1ccccc1C2=O` [YM-155, reference compound], the IC50 is more than 10 µM in the experiment on M14/LCC6MDR1 (Homo sapiens, 48 h) and 0.003 µM in the experiment on M14. For the same molecule, the “Resistance Index” value with M14/LCC6MDR1 is “higher than 2941”.
As to `CC(C)(C)c1ccc(COCc2cc(CN3CCCC3)c(O)c3ncccc23)cc1` [4h, 5-(((4-(tert-butyl)benzyl)oxy)methyl)-7-(pyrrolidin-1-ylmethyl)quinolin-8-ol], the IC50 with M14/LCC6MDR1 (Homo sapiens, 48 h) is 1.5 ± 0.7 µM; with A375, 1.1 ± 0.4 µM; in the experiment with PC-3, 1.5 ± 0.3 µM.
Regarding `Oc1c(CN2CCCC2)cc(COCc2ccc(Cl)cc2)c2cccnc12` [4b, 5-(((4-chlorobenzyl)oxy)methyl)-7-(pyrrolidin-1-ylmethyl)quinolin-8-ol], the IC50 in the experiment on M14/LCC6MDR1 (Homo sapiens, 48 h) turned out to be 2.4 ± 0.5 µM; with M14 it was 1.1 ± 0.1 µM; in the experiment on A375 it was 1.5 ± 0.3 µM; in the experiment with PC-3, 0.9 ± 0.1 µM. Moreover, the “Resistance Index” value in the experiment with M14/LCC6MDR1 is 2.2.
In the case of `Oc1c(CN2CCCC2)cc(COCCCc2ccccc2)c2cccnc12` [10b, 5-((3-phenylpropoxy)methyl)-7-(pyrrolidin-1-ylmethyl)quinolin-8-ol], the IC50 in the experiment on M14/LCC6MDR1 (Homo sapiens, 48 h) is 15 to 20 µM; in the experiment with M14/LCC6MDR1, 20 ± 1.6 µM; in the experiment on M14, 2.3 ± 0.8 µM; with A375 it was 2.4 ± 0.7 µM. The “Resistance Index” value in the experiment with M14/LCC6MDR1 is 8.7.
On to `COc1cc(COCc2cc(CN3CCCC3)c(O)c3ncccc23)cc(OC)c1OC` [4l, 7-(pyrrolidin-1-ylmethyl)-5-(((3,4,5-trimethoxybenzyl)oxy)methyl)quinolin-8-ol], for which the IC50 in the experiment on M14/LCC6MDR1 (Homo sapiens, 48 h) was more than 30 µM; with M14, 3.6 ± 1 µM; in the experiment on A375 it was 2.8 ± 0.4 µM; in the experiment with PC-3, 1.6 ± 0.3 µM. For the same molecule, the “Resistance Index” value in the experiment with M14/LCC6MDR1 is on record as more than 8.3.
On the same counts, the results for `Oc1c(CN2CCCC2)cc(COCc2cccs2)c2cccnc12` [6b, 7-(pyrrolidin-1-ylmethyl)-5-((thiophen-2-ylmethoxy)methyl)quinolin-8-ol] are 4.2 ± 0.2 µM, 1.9 ± 0.9 µM, 2.5 ± 0.5 µM, 3.4 ± 0.7 µM and 2.2.
As to `Oc1c(CN2CCCC2)cc(COCC2CCCCC2)c2cccnc12` [6d, 5-((cyclohexylmethoxy)methyl)-7-(pyrrolidin-1-ylmethyl)quinolin-8-ol], the IC50 in the experiment with M14 was 1.3 ± 0.6 µM; with A375, 1 ± 0.1 µM.
For `Oc1c(CN2CCCC2)cc(COCc2ccccn2)c2cccnc12` [6c, 5-((pyridin-2-ylmethoxy)methyl)-7-(pyrrolidin-1-ylmethyl)quinolin-8-ol], the IC50 in the experiment on M14/LCC6MDR1 (Homo sapiens, 48 h) was more than 30 µM; in the experiment on M14 it was 8 ± 2.2 µM; in the experiment with A375, 8.4 ± 1.5 µM; with PC-3 it was more than 30 µM. Also, the “Resistance Index” value with M14/LCC6MDR1 was more than 3.8.
Regarding `Oc1c(CN2CCCC2)cc(COCc2ccc(OCc3ccccc3)cc2)c2cccnc12` [4j, 5-(((4-(benzyloxy)benzyl)oxy)methyl)-7-(pyrrolidin-1-ylmethyl)quinolin-8-ol], the IC50 with M14/LCC6MDR1 (Homo sapiens, 48 h) was determined as 12.1 ± 0.5 µM; in the experiment with A375, 2.8 ± 0.1 µM.
Turning to `COc1ccc(COCc2cc(CN3CCCC3)c(O)c3ncccc23)cc1` [4i, 5-(((4-methoxybenzyl)oxy)methyl)-7-(pyrrolidin-1-ylmethyl)quinolin-8-ol], the IC50 was determined as 3.8 ± 0.6 µM in the experiment with M14/LCC6MDR1 (Homo sapiens, 48 h); 1.5 ± 0.4 µM in the experiment with M14; 1.8 ± 0.2 µM with A375; 1 ± 0.4 µM in the experiment with PC-3. In addition, the “Resistance Index” value in the experiment with M14/LCC6MDR1 was 2.5.
Regarding `CCCOCc1cc(CN2CCCC2)c(O)c2ncccc12` [6f, 5-(propoxymethyl)-7-(pyrrolidin-1-ylmethyl)quinolin-8-ol], the IC50 in the experiment with M14 worked out at 5.9 ± 1.2 µM; in the experiment with A375 it was 5 ± 0.3 µM.
On to `CN(Cc1ccccc1)Cc1cc(CN2CCCC2)c(O)c2ncccc12` [12b, 5-((benzyl(methyl)amino)methyl)-7-(pyrrolidin-1-ylmethyl)quinolin-8-ol], for which the IC50 is 8 ± 1 µM in the experiment on M14/LCC6MDR1 (Homo sapiens, 48 h); 6.2 ± 1.4 µM with M14; 7.1 ± 0.7 µM in the experiment with A375; 2.5 ± 0.6 µM in the experiment on PC-3. The “Resistance Index” value with M14/LCC6MDR1 was found to be 1.3.
Regarding `Oc1c(CN2CCCC2)cc(COCCc2ccccc2)c2cccnc12` [10a, 5-(phenethoxymethyl)-7-(pyrrolidin-1-ylmethyl)quinolin-8-ol], the IC50 in the experiment with M14/LCC6MDR1 (Homo sapiens, 48 h) was 15 to 20 µM; in the experiment with M14/LCC6MDR1 it was 15 ± 2.5 µM; in the experiment with M14, 2.9 ± 0.2 µM; in the experiment on A375, 2.8 ± 0.9 µM. In the experiment on M14/LCC6MDR1, the “Resistance Index” value was 5.2.
`Oc1c(CN2CCCC2)cc(COCc2ccc(C(F)(F)F)cc2)c2cccnc12` [4d, 7-(pyrrolidin-1-ylmethyl)-5-(((4-(trifluoromethyl)benzyl)oxy)methyl)quinolin-8-ol]: the IC50 in the experiment on M14/LCC6MDR1 (Homo sapiens, 48 h) is 1.9 ± 0.5 µM; in the experiment on M14, 1 ± 0.4 µM; in the experiment on A375, 0.9 ± 0.3 µM; in the experiment on PC-3, 1 ± 0.1 µM. In addition, the “Resistance Index” value in the experiment on M14/LCC6MDR1 is listed as 1.9.
Regarding `Cc1ccc(COCc2cc(CN3CCCC3)c(O)c3ncccc23)cc1` [4e, 5-(((4-methylbenzyl)oxy)methyl)-7-(pyrrolidin-1-ylmethyl)quinolin-8-ol], the IC50 in the experiment with M14/LCC6MDR1 (Homo sapiens, 48 h) worked out at 4.1 ± 2 µM; in the experiment with M14, 2.3 ± 0.5 µM; with A375 it was 1.7 ± 0.3 µM; in the experiment on PC-3, 1.1 ± 0.2 µM. Also, the “Resistance Index” value in the experiment on M14/LCC6MDR1 is listed as 1.8.
For the molecule `Oc1c(CN2CCCC2)cc(COCc2ccc(F)cc2)c2cccnc12` [4a, 5-(((4-fluorobenzyl)oxy)methyl)-7-(pyrrolidin-1-ylmethyl)quinolin-8-ol], the IC50 with M14/LCC6MDR1 (Homo sapiens, 48 h) was 4.4 ± 0.7 µM; in the experiment with M14, 1.8 ± 0.3 µM; in the experiment on A375 it was 1.5 ± 0.2 µM; in the experiment with PC-3, 0.7 ± 0.2 µM. In addition, the “Resistance Index” value in the experiment on M14/LCC6MDR1 was 2.4.
`Oc1c(CN2CCCC2)cc(COCc2ccco2)c2cccnc12` [6a, 5-((furan-2-ylmethoxy)methyl)-7-(pyrrolidin-1-ylmethyl)quinolin-8-ol]: the IC50 is 15.3 ± 3.1 µM in the experiment with M14/LCC6MDR1 (Homo sapiens, 48 h); 3.1 ± 0.3 µM in the experiment on M14; 2.7 ± 0.3 µM in the experiment with A375; 27.5 ± 2 µM in the experiment with PC-3. Also, in the experiment with M14/LCC6MDR1, the “Resistance Index” value turned out to be 4.9.

Source of the values: article PMC4466525, “Design, Synthesis and Structure-Activity Relationship Studies of Novel Survivin Inhibitors with Potent Anti-Proliferative Properties” (PLoS ONE, 2015).
